In BindingDB's records for doi:10.1021/jm801354e (University of Illinois At Chicago, 2009):
Counter-ions that a name gives are not always drawn.

Experiments:
[1] = biological target: T1, 5-hydroxytryptamine receptor 2B (Homo sapiens, UniProt P41595); assay: Agonist activity at human 5HT2B receptor expressed in HEK293 cells assessed as calcium flux by FLIPR assay
[2] = biological target: T2, 5-hydroxytryptamine receptor 2C (Homo sapiens, UniProt P28335); assay: Agonist activity at human 5HT2C receptor expressed in HEK293 cells assessed as calcium flux by FLIPR assay
T2 sequence (P28335 whole entry): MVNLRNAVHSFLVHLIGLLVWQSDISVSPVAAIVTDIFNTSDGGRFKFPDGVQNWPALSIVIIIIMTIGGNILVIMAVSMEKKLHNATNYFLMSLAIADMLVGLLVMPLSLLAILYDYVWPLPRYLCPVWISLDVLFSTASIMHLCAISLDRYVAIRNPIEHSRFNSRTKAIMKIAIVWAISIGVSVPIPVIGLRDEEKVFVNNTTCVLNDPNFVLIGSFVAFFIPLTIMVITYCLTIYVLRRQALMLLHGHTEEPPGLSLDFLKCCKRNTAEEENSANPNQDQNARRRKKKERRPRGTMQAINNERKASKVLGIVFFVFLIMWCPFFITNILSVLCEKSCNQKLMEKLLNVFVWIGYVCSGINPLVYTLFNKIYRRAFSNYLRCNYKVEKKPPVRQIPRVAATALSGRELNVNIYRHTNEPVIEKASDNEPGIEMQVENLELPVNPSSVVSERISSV

[3] = biological target: T3, 5-hydroxytryptamine receptor 2A (Homo sapiens, UniProt P28223); assay: Agonist activity at human 5HT2A receptor expressed in HEK293 cells assessed as calcium flux by FLIPR assay
[4] = biological target: Sodium-dependent noradrenaline transporter (Homo sapiens, UniProt P23975); assay: Displacement of [3H]nisoxetine from NET
[5] = biological target: T3, 5-hydroxytryptamine receptor 2A; assay: Displacement of [3H]ketanserin from human 5HT2A receptor
[6] = biological target: T1, 5-hydroxytryptamine receptor 2B; assay: Displacement of [3H]LSD from human 5HT2B receptor
[7] = biological target: Sodium-dependent serotonin transporter (Homo sapiens, UniProt P31645); assay: Displacement of [3H]citalopram from SERT
[8] = biological target: Sodium-dependent dopamine transporter (Homo sapiens, UniProt Q01959); assay: Displacement of [3H]WIN-35428 from DAT
[9] = biological target: T2, 5-hydroxytryptamine receptor 2C; assay: Displacement of [3H]mesulergine from 5HT2C receptor

T3 sequence (P28223 whole entry): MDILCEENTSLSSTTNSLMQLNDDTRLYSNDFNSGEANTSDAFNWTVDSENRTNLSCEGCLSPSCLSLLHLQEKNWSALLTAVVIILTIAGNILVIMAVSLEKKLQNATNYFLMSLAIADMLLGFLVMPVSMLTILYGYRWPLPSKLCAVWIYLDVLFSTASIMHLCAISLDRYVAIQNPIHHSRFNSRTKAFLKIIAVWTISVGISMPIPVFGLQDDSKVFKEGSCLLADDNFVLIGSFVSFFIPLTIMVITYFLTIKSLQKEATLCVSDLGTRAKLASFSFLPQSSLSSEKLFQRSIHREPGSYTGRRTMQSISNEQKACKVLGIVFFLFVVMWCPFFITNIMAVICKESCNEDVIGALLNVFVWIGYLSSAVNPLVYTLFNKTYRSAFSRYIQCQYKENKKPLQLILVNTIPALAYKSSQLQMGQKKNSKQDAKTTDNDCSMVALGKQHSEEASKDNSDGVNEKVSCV
T1 sequence (P41595 whole entry): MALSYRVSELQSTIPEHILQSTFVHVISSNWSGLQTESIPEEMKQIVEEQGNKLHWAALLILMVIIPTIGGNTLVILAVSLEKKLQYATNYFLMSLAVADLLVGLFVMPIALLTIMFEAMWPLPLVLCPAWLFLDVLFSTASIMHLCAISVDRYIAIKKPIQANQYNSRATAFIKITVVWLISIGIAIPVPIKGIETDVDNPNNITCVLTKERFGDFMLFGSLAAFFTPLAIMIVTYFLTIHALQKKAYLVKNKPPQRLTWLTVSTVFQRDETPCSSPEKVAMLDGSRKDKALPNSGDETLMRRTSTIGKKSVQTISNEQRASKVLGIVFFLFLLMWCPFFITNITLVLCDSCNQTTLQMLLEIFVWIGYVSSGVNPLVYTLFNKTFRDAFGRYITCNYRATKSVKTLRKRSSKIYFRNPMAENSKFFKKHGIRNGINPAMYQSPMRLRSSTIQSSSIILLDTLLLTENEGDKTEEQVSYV
Sodium-dependent noradrenaline transporter, sequence (P23975 whole entry): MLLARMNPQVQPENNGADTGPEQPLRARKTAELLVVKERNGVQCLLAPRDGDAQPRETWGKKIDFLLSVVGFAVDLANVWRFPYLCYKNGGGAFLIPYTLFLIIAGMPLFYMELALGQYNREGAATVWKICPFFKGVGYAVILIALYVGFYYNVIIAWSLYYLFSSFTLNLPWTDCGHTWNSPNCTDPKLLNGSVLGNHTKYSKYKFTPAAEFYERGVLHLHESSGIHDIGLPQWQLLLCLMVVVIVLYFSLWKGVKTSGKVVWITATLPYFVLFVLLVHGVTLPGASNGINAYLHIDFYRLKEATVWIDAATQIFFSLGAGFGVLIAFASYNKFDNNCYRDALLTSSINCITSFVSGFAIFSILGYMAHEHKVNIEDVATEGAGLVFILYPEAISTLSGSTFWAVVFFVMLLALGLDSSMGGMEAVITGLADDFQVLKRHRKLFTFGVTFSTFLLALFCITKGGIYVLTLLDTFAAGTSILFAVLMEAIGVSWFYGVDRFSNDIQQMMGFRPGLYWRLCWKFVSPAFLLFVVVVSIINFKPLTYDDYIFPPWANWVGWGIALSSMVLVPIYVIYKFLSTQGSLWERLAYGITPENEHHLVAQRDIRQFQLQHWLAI
Sodium-dependent serotonin transporter, sequence (P31645 whole entry): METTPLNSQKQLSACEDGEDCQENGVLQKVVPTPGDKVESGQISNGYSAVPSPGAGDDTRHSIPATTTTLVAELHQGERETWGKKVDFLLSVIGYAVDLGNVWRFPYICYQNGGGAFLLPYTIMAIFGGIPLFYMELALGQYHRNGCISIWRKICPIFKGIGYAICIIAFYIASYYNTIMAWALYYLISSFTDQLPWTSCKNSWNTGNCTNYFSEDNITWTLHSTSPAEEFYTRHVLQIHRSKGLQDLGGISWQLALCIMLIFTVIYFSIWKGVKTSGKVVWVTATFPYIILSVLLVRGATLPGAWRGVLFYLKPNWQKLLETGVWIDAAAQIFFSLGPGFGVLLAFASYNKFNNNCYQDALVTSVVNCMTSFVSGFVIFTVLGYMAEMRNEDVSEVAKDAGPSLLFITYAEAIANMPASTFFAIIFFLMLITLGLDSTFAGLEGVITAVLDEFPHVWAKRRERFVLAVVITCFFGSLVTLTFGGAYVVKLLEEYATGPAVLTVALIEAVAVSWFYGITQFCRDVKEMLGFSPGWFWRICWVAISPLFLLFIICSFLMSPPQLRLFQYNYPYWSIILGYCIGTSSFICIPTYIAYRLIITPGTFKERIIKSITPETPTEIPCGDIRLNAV
Sodium-dependent dopamine transporter, sequence (Q01959 whole entry): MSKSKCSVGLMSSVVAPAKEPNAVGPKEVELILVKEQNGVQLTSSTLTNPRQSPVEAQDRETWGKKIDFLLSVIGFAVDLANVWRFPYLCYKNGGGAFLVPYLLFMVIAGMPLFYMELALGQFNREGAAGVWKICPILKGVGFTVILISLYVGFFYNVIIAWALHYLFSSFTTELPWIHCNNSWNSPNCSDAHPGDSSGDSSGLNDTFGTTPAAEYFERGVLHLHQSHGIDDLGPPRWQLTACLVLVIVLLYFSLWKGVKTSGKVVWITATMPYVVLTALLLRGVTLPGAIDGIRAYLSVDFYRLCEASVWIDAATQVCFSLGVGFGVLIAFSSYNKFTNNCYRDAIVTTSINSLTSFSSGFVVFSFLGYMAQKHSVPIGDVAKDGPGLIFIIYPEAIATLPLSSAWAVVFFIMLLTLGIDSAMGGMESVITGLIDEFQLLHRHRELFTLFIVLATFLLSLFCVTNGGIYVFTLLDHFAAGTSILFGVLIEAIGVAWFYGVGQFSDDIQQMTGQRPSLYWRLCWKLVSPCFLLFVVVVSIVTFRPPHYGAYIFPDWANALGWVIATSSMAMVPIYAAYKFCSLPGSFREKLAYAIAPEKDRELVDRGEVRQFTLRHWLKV

Structure (SMILES): NC[C@H]1C[C@H]1c1ccccc1 (racemic) [(+/-)-Cis-(2-Phenylcyclopropyl)methylamineHydrochloride]
- EC50 [1]: > 10000 nM
- EC50 [2]: 3020 nM

Structure (SMILES): NC[C@H]1C[C@@H]1c1ccc2ccccc2c1 (relative stereo) [trans-(2-Naphthalen-2-ylcyclopropyl)methylamine Hydrochloride]
- EC50 [1]: 510 nM
- EC50 [2]: 2900 nM

Structure (SMILES): c1ccc(CNC[C@H]2C[C@@H]2c2ccccc2)cc1 (relative stereo) [trans-N-Benzyl-(2-phenylcyclopropylmethyl)amine]
- EC50 [2]: 5700 nM

Structure (SMILES): CNC[C@H]1C[C@@H]1c1ccccc1 (relative stereo) [trans-N-Methyl-(2-phenylcyclopropylmethyl)amine]
- EC50 [1]: > 10000 nM
- EC50 [2]: 634 nM

Structure (SMILES): NC[C@H]1C[C@@H]1c1cccc(Cl)c1Cl (relative stereo) [trans-[2-(2,3-Dichlorophenyl)cyclopropyl]methylamine Hydrochloride]
- EC50 [1]: 14 nM
- EC50 [3]: 349 nM
- EC50 [2]: 11 nM

Structure (SMILES): NC[C@H]1C[C@@H]1c1cccc(F)c1F (relative stereo) [trans-[2-(2,3-Difluorophenyl)cyclopropyl]methylamine Hydrochloride]
- EC50 [1]: 366 nM
- EC50 [3]: > 5000 nM
- EC50 [2]: 99 nM

Structure (SMILES): Cc1cccc([C@H]2C[C@@H]2CN)c1C (relative stereo) [trans-[2-(2,3-Dimethylphenyl)cyclopropyl]methylamine Hydrochloride]
- EC50 [1]: 8.4 nM
- EC50 [3]: 360 nM
- EC50 [2]: 7 nM

Structure (SMILES): NC[C@H]1C[C@@H]1c1ccc(Cl)cc1Cl (relative stereo) [trans-[2-(2,4-Dichlorophenyl)cyclopropyl]methylamine Hydrochloride]
- EC50 [1]: 83 nM
- EC50 [3]: 51 nM
- EC50 [2]: 18 nM

Structure (SMILES): NC[C@H]1C[C@@H]1c1c(F)cccc1F (relative stereo) [trans-[2-(2,6-Difluorophenyl)cyclopropyl]methylamine Hydrochloride]
- EC50 [1]: 3340 nM
- EC50 [3]: > 1000 nM
- EC50 [2]: 87 nM

Structure (SMILES): Cc1ccc([C@H]2C[C@@H]2CN)c(Br)c1 (relative stereo) [trans-[2-(2-Bromo-4-methylphenyl)cyclopropyl]methylamine Hydrochloride]
- EC50 [1]: 116 nM
- EC50 [3]: 465 nM
- EC50 [2]: 97 nM

Structure (SMILES): NC[C@H]1C[C@@H]1c1ccc(F)cc1Cl (relative stereo) [trans-[2-(2-Chloro-4-fluorophenyl)cyclopropyl]methylamine Hydrochloride]
- Ki [4]: > 10000 nM
- EC50 [1]: 22 nM
- Ki [5]: 254 nM
- EC50 [3]: 91 nM
- Ki [6]: 16 nM
- Ki [7]: 1040 nM
- EC50 [2]: 3 nM
- Ki [8]: > 10000 nM
- Ki [9]: 203 nM

Structure (SMILES): Cc1cccc(Cl)c1[C@H]1C[C@@H]1CN (relative stereo) [trans-[2-(2-Chloro-6-methylphenyl)cyclopropyl]methylamine Hydrochloride]
- EC50 [1]: 7 nM
- EC50 [3]: 726 nM
- EC50 [2]: 3.5 nM

Structure (SMILES): NC[C@H]1C[C@@H]1c1ccccc1Cl (relative stereo) [trans-[2-(2-Chlorophenyl)cyclopropyl]methylamine Hydrochloride]
- EC50 [1]: 32 nM
- EC50 [3]: 168 nM
- EC50 [2]: 5.1 nM

Structure (SMILES): NC[C@H]1C[C@@H]1c1ccccc1O (relative stereo) [trans-[2-(2-Hydroxyphenyl)cyclopropyl]methylamine Hydrochloride]
- EC50 [1]: 492 nM
- EC50 [3]: 513 nM
- EC50 [2]: 161 nM

Structure (SMILES): COc1ccccc1[C@H]1C[C@@H]1CN (relative stereo) [trans-[2-(2-Methoxyphenyl)cyclopropyl]methylamine Hydrochloride]
- EC50 [1]: 199 nM
- EC50 [3]: 2170 nM
- EC50 [2]: 26 nM

Structure (SMILES): Cc1ccccc1[C@H]1C[C@@H]1CN (relative stereo) [trans-[2-(2-Methylphenyl)cyclopropyl]methylamine Hydrochloride]
- EC50 [1]: 53 nM
- EC50 [3]: 1610 nM
- EC50 [2]: 23 nM

Structure (SMILES): NC[C@H]1C[C@@H]1c1ccccc1C(F)(F)F (relative stereo) [trans-[2-(2-Trifluoromethylphenyl)cyclopropyl]methylamine Hydrochloride]
- EC50 [1]: 350 nM
- EC50 [2]: 49 nM

Structure (SMILES): NC[C@H]1C[C@@H]1c1ccc(F)c(F)c1 (relative stereo) [trans-[2-(3,4-Difluorophenyl)cyclopropyl]methylamine Hydrochloride]
- EC50 [1]: 28 nM
- EC50 [3]: 578 nM
- EC50 [2]: 9 nM

Structure (SMILES): Cc1ccc([C@H]2C[C@@H]2CN)cc1C (relative stereo) [trans-[2-(3,4-Dimethylphenyl)cyclopropyl]methylamine Hydrochloride]
- EC50 [1]: 12 nM
- EC50 [3]: 2390 nM
- EC50 [2]: 35 nM

Structure (SMILES): NC[C@H]1C[C@@H]1c1cccc(Br)c1 (relative stereo) [trans-[2-(3-Bromophenyl)cyclopropyl]methylamine Hydrochloride]
- EC50 [1]: 141 nM
- EC50 [3]: 1680 nM
- EC50 [2]: 14 nM

Structure (SMILES): NC[C@H]1C[C@@H]1c1cccc(Cl)c1 (relative stereo) [trans-[2-(3-Chlorophenyl)cyclopropyl]methylamine Hydrochloride]
- EC50 [1]: 59 nM
- EC50 [3]: 1890 nM
- EC50 [2]: 10 nM

Structure (SMILES): NC[C@H]1C[C@@H]1c1cccc(F)c1 (relative stereo) [trans-[2-(3-Fluorophenyl)cyclopropyl]methylamine Hydrochloride]
- EC50 [1]: 3.6 nM
- EC50 [3]: 437 nM
- EC50 [2]: 3.3 nM

Structure (SMILES): NC[C@H]1C[C@@H]1c1cccc(O)c1 (relative stereo) [trans-[2-(3-Hydroxyphenyl)cyclopropyl]methylamine Hydrochloride]
- EC50 [1]: 5.5 nM
- EC50 [3]: 247 nM
- EC50 [2]: 3.3 nM

Structure (SMILES): COc1cccc([C@H]2C[C@@H]2CN)c1 (relative stereo) [trans-[2-(3-Methoxyphenyl)cyclopropyl]methylamine Hydrochloride]
- EC50 [1]: 75 nM
- EC50 [3]: 613 nM
- EC50 [2]: 16 nM

Structure (SMILES): Cc1cccc([C@H]2C[C@@H]2CN)c1 (relative stereo) [trans-[2-(3-Methylphenyl)cyclopropyl]methylamine Hydrochloride]
- Ki [4]: > 10000 nM
- EC50 [1]: 65 nM
- Ki [5]: 1850 nM
- EC50 [3]: 585 nM
- Ki [6]: 85 nM
- Ki [7]: 5440 nM
- EC50 [2]: 4.8 nM
- Ki [8]: 5400 nM
- Ki [9]: 268 nM

Structure (SMILES): NC[C@H]1C[C@@H]1c1cccc(C(F)(F)F)c1 (relative stereo) [trans-[2-(3-Trifluoromethylphenyl)cyclopropyl]methylamine Hydrochloride]
- EC50 [1]: 77 nM
- EC50 [3]: 1480 nM
- EC50 [2]: 30 nM

Structure (SMILES): NC[C@H]1C[C@@H]1c1ccc(Br)cc1 (relative stereo) [trans-[2-(4-Bromophenyl)cyclopropyl]methylamine Hydrochloride]
- EC50 [1]: 2740 nM
- EC50 [3]: > 1000 nM
- EC50 [2]: 138 nM

Structure (SMILES): NC[C@H]1C[C@@H]1c1ccc(Cl)cc1F (relative stereo) [trans-[2-(4-Chloro-2-fluorophenyl)cyclopropyl]methylamine Hydrochloride]
- EC50 [1]: 459 nM
- EC50 [3]: 774 nM
- EC50 [2]: 128 nM

Structure (SMILES): NC[C@H]1C[C@@H]1c1ccc(Cl)cc1 (relative stereo) [trans-[2-(4-Chlorophenyl)cyclopropyl]methylamine Hydrochloride]
- EC50 [1]: 404 nM
- EC50 [3]: 4480 nM
- EC50 [2]: 76 nM

Structure (SMILES): Cc1cc([C@H]2C[C@@H]2CN)ccc1F (relative stereo) [trans-[2-(4-Fluoro-3-methylphenyl)cyclopropyl]methylamine Hydrochloride]
- EC50 [1]: 4.9 nM
- EC50 [3]: 235 nM
- EC50 [2]: 6 nM

Structure (SMILES): COc1ccc([C@H]2C[C@@H]2CN)cc1 (relative stereo) [trans-[2-(4-Methoxyphenyl)cyclopropyl]methylamine Hydrochloride]
- EC50 [2]: 902 nM

Structure (SMILES): Cc1ccc([C@H]2C[C@@H]2CN)cc1 (relative stereo) [trans-[2-(4-Methylphenyl)cyclopropyl]methylamine Hydrochloride]
- EC50 [1]: 37 nM
- EC50 [3]: 1930 nM
- EC50 [2]: 135 nM

Structure (SMILES): NC[C@H]1C[C@@H]1c1ccc(C(F)(F)F)cc1 (relative stereo) [trans-[2-(4-Trifluoromethylphenyl)cyclopropyl]methylamine Hydrochloride]
- EC50 [1]: > 1000 nM
- EC50 [2]: 779 nM

Structure (SMILES): NC[C@H]1C[C@@H]1c1ccc(F)cc1F [trans-[2-(2,4-Difluorophenyl)cyclopropyl]methylamine Hydrochloride]
- EC50 [1]: 415 nM
- EC50 [3]: 547 nM
- EC50 [2]: 42 nM

Structure (SMILES): NC[C@H]1C[C@@H]1c1ccccc1F [trans-[2-(2-Fluorophenyl)cyclopropyl]methylamine Hydrochloride]
- EC50 [1]: 69 nM
- EC50 [2]: 29 nM

Structure (SMILES): Cc1ccc(Cl)c([C@H]2C[C@@H]2CN)c1F [trans-[2-(6-Chloro-2-fluoro-3-methylphenyl)cyclopropyl]methylamineHydrochloride]
- EC50 [1]: 116 nM
- EC50 [3]: 330 nM
- EC50 [2]: 13 nM
